Calls of active or inactive are those of the source. The rule behind the calls is not given here.
Tests used:
Macrophage cell line [1] = experiment: Antiinflammatory activity in human PBMC-differentiated macrophages assessed as inhibition of LPS-induced IL-8 production at 0.01 to 10 uM measured after 24 hrs by ELISA; type: functional, cell-based
Macrophage cell line [2] = experiment: Antiinflammatory activity in human PBMC-differentiated macrophages assessed as inhibition of LPS-induced prostaglandin production at 0.01 to 10 uM measured after 24 hrs by ELISA; type: functional, cell-based
Macrophage cell line [3] = experiment: Induction of TNFalpha production in human PBMC-differentiated macrophages after 24 hrs by ELISA; type: cell-based
Macrophage cell line [4] = experiment: Induction of prostaglandin production in human PBMC-differentiated macrophages after 24 hrs by ELISA; type: cell-based
Staphylococcus aureus [5] = experiment: Toxicity in Staphylococcus aureus ATCC 33592 up to 32 uM measured after 16 hrs; type: organism-based
Streptococcus pyogenes [6] = experiment: Toxicity in Streptococcus pyogenes ATCC 14289 up to 32 uM measured after 16 hrs; type: organism-based
Klebsiella pneumoniae [7] = experiment: Toxicity in Klebsiella pneumoniae ATCC 13883 up to 32 uM measured after 16 hrs; type: organism-based
Enterococcus faecium [8] = experiment: Toxicity in Enterococcus faecium ATCC 700221 up to 32 uM measured after 16 hrs; type: organism-based; settings: in vitro
Escherichia coli [9] = experiment: Toxicity in Escherichia coli ATCC 43894 up to 32 uM measured after 16 hrs; type: organism-based
Staphylococcus aureus [10] = experiment: Potentiation of methicillin-induced antibacterial activity against Staphylococcus aureus ATCC 33592 assessed as minimum modulatory concentration up to 32 uM measured after 16 hrs in presence of MIC/4 methicillin; type: functional; settings: ATCC 33592, 16 h, read-out: MEC
Staphylococcus aureus [11] = experiment: Potentiation of geneticin-induced antibacterial activity against Staphylococcus aureus ATCC 33592 assessed as minimum modulatory concentration up to 32 uM measured after 16 hrs in presence of MIC/4 geneticin; type: functional; settings: ATCC 33592, 16 h, read-out: MEC
Staphylococcus aureus [12] = experiment: Potentiation of ciprofloxacin-induced antibacterial activity against Staphylococcus aureus ATCC 33592 assessed as minimum modulatory concentration up to 32 uM measured after 16 hrs in presence of MIC/4 ciprofloxacin; type: functional; settings: ATCC 33592, 16 h, read-out: MEC
Staphylococcus aureus [13] = experiment: Potentiation of tetracycline-induced antibacterial activity against Staphylococcus aureus ATCC 33592 assessed as minimum modulatory concentration up to 32 uM measured after 16 hrs in presence of MIC/4 tetracycline; type: functional; settings: ATCC 33592, 16 h, read-out: MEC
Staphylococcus aureus [14] = experiment: Potentiation of erythromycin-induced antibacterial activity against Staphylococcus aureus ATCC 33592 assessed as minimum modulatory concentration up to 32 uM measured after 16 hrs in presence of MIC/4 erythromycin; type: functional; settings: ATCC 33592, 16 h, read-out: MEC
Streptococcus pyogenes [15] = experiment: Potentiation of geneticin-induced antibacterial activity against Streptococcus pyogenes ATCC 14289 assessed as minimum modulatory concentration up to 32 uM measured after 16 hrs in presence of MIC/4 geneticin; type: functional; settings: ATCC 14289, 16 h, read-out: MEC
Streptococcus pyogenes [16] = experiment: Potentiation of ciprofloxacin-induced antibacterial activity against Streptococcus pyogenes ATCC 14289 assessed as minimum modulatory concentration up to 32 uM measured after 16 hrs in presence of MIC/4 ciprofloxacin; type: functional; settings: ATCC 14289, 16 h, read-out: MEC
Streptococcus pyogenes [17] = experiment: Potentiation of tetracycline-induced antibacterial activity against Streptococcus pyogenes ATCC 14289 assessed as minimum modulatory concentration up to 32 uM measured after 16 hrs in presence of MIC/4 tetracycline; type: functional; settings: ATCC 14289, 16 h, read-out: MEC
Streptococcus pyogenes [18] = experiment: Potentiation of erythromycin-induced antibacterial activity against Streptococcus pyogenes ATCC 14289 assessed as minimum modulatory concentration up to 32 uM measured after 16 hrs in presence of MIC/4 erythromycin; type: functional; settings: ATCC 14289, 16 h, read-out: MEC
Klebsiella pneumoniae [19] = experiment: Potentiation of methicillin-induced antibacterial activity against Klebsiella pneumoniae ATCC 13883 assessed as minimum modulatory concentration up to 32 uM measured after 16 hrs in presence of MIC/4 methicillin; type: functional; settings: ATCC 13883, 16 h, read-out: MEC
Klebsiella pneumoniae [20] = experiment: Potentiation of geneticin-induced antibacterial activity against Klebsiella pneumoniae ATCC 13883 assessed as minimum modulatory concentration up to 32 uM measured after 16 hrs in presence of MIC/4 geneticin; type: functional; settings: ATCC 13883, 16 h, read-out: MEC
Klebsiella pneumoniae [21] = experiment: Potentiation of ciprofloxacin-induced antibacterial activity against Klebsiella pneumoniae ATCC 13883 assessed as minimum modulatory concentration up to 32 uM measured after 16 hrs in presence of MIC/4 ciprofloxacin; type: functional; settings: ATCC 13883, 16 h, read-out: MEC
Klebsiella pneumoniae [22] = experiment: Potentiation of tetracycline-induced antibacterial activity against Klebsiella pneumoniae ATCC 13883 assessed as minimum modulatory concentration up to 32 uM measured after 16 hrs in presence of MIC/4 tetracycline; type: functional; settings: ATCC 13883, 16 h, read-out: MEC
Klebsiella pneumoniae [23] = experiment: Potentiation of erythromycin-induced antibacterial activity against Klebsiella pneumoniae ATCC 13883 assessed as minimum modulatory concentration up to 32 uM measured after 16 hrs in presence of MIC/4 erythromycin; type: functional; settings: ATCC 13883, 16 h, read-out: MEC
Enterococcus faecium [24] = experiment: Potentiation of geneticin-induced antibacterial activity against Enterococcus faecium ATCC 700221 assessed as minimum modulatory concentration up to 32 uM measured after 16 hrs in presence of MIC/4 geneticin; type: functional; settings: ATCC 700221, 16 h, read-out: MEC
Enterococcus faecium [25] = experiment: Potentiation of tetracycline-induced antibacterial activity against Enterococcus faecium ATCC 700221 assessed as minimum modulatory concentration up to 32 uM measured after 16 hrs in presence of MIC/4 tetracycline; type: functional; settings: ATCC 700221, 16 h, read-out: MEC
Enterococcus faecium [26] = experiment: Potentiation of erythromycin-induced antibacterial activity against Enterococcus faecium ATCC 700221 assessed as minimum modulatory concentration up to 32 uM measured after 16 hrs in presence of MIC/4 erythromycin; type: functional; settings: ATCC 700221, 16 h, read-out: MEC
Pseudomonas aeruginosa [27] = experiment: Potentiation of methicillin-induced antibacterial activity against Pseudomonas aeruginosa ATCC BAA-2108 assessed as minimum modulatory concentration up to 32 uM measured after 16 hrs in presence of MIC/4 methicillin; type: functional; settings: ATCC BAA-2108, 16 h, read-out: MEC
Pseudomonas aeruginosa [28] = experiment: Potentiation of geneticin-induced antibacterial activity against Pseudomonas aeruginosa ATCC BAA-2108 assessed as minimum modulatory concentration up to 32 uM measured after 16 hrs in presence of MIC/4 geneticin; type: functional; settings: ATCC BAA-2108, 16 h, read-out: MEC
Pseudomonas aeruginosa [29] = experiment: Potentiation of tetracycline-induced antibacterial activity against Pseudomonas aeruginosa ATCC BAA-2108 assessed as minimum modulatory concentration up to 32 uM measured after 16 hrs in presence of MIC/4 tetracycline; type: functional; settings: ATCC BAA-2108, 16 h, read-out: MEC
Pseudomonas aeruginosa [30] = experiment: Potentiation of erythromycin-induced antibacterial activity against Pseudomonas aeruginosa ATCC BAA-2108 assessed as minimum modulatory concentration up to 32 uM measured after 16 hrs in presence of MIC/4 erythromycin; type: functional; settings: ATCC BAA-2108, 16 h, read-out: MEC
Escherichia coli [31] = experiment: Potentiation of methicillin-induced antibacterial activity against Escherichia coli ATCC 43894 assessed as minimum modulatory concentration up to 32 uM measured after 16 hrs in presence of MIC/4 methicillin; type: functional; settings: ATCC 43894, 16 h, read-out: MEC
Escherichia coli [32] = experiment: Potentiation of tetracycline-induced antibacterial activity against Escherichia coli ATCC 43894 assessed as minimum modulatory concentration up to 32 uM measured after 16 hrs in presence of MIC/4 tetracycline; type: functional; settings: ATCC 43894, 16 h, read-out: MEC
Escherichia coli [33] = experiment: Potentiation of erythromycin-induced antibacterial activity against Escherichia coli ATCC 43894 assessed as minimum modulatory concentration up to 32 uM measured after 16 hrs in presence of MIC/4 erythromycin; type: functional; settings: ATCC 43894, 16 h, read-out: MEC

| Structure (SMILES) | inhibition (Macrophage cell line [1]) | Activity (Macrophage cell line [3]) | Activity (Macrophage cell line [4]) | Activity (Staphylococcus aureus [5]) | Activity (Streptococcus pyogenes [6]) | Activity (Klebsiella pneumoniae [7]) | Activity (Enterococcus faecium [8]) | Activity (Escherichia coli [9]) | minimal effective concentration (Staphylococcus aureus [10]) [µM] | minimal effective concentration (Staphylococcus aureus [11]) [µM] | minimal effective concentration (Staphylococcus aureus [12]) [µM] | minimal effective concentration (Staphylococcus aureus [13]) [µM] | minimal effective concentration (Staphylococcus aureus [14]) [µM] | minimal effective concentration (Streptococcus pyogenes [15]) [µM] | minimal effective concentration (Streptococcus pyogenes [16]) [µM] | minimal effective concentration (Streptococcus pyogenes [17]) [µM] | minimal effective concentration (Streptococcus pyogenes [18]) [µM] | minimal effective concentration (Klebsiella pneumoniae [19]) [µM] | minimal effective concentration (Klebsiella pneumoniae [20]) [µM] | minimal effective concentration (Klebsiella pneumoniae [21]) [µM] | other results |
| --- | --- | --- | --- | --- | --- | --- | --- | --- | --- | --- | --- | --- | --- | --- | --- | --- | --- | --- | --- | --- | --- |
| Cc1cc(C(=O)O)c(O)c(Cc2ccccc2)n1 | inactive | Non-Toxic | Non-Toxic | Non-Toxic | Non-Toxic | Non-Toxic | Non-Toxic | Non-Toxic | > 32 | > 32 | > 32 | > 32 | > 32 | > 32 | > 32 | 16 | > 32 | > 32 | > 32 | > 32 | inhibition (Macrophage cell line [2]): inactive; minimal effective concentration (Klebsiella pneumoniae [22]): > 32 µM; minimal effective concentration (Klebsiella pneumoniae [23]): > 32 µM; minimal effective concentration (Enterococcus faecium [24]): > 32 µM; minimal effective concentration (Enterococcus faecium [25]): > 32 µM; minimal effective concentration (Enterococcus faecium [26]): > 32 µM; minimal effective concentration (Pseudomonas aeruginosa [27]): > 32 µM; minimal effective concentration (Pseudomonas aeruginosa [28]): > 32 µM; minimal effective concentration (Pseudomonas aeruginosa [29]): > 32 µM; minimal effective concentration (Pseudomonas aeruginosa [30]): > 32 µM; minimal effective concentration (Escherichia coli [31]): > 32 µM; minimal effective concentration (Escherichia coli [32]): > 32 µM; minimal effective concentration (Escherichia coli [33]): > 32 µM |
| O=C(O)c1cc(-c2ccccc2)nc(-c2ccccc2)c1O | inactive | Non-Toxic | Non-Toxic | Non-Toxic | Non-Toxic | Non-Toxic | Non-Toxic | Non-Toxic | 4 | 8 | 16 | 2 | 2 | 4 | > 32 | 8 | 4 | > 32 | > 32 | > 32 | minimal effective concentration (Klebsiella pneumoniae [22]): > 32 µM; minimal effective concentration (Klebsiella pneumoniae [23]): > 32 µM; minimal effective concentration (Enterococcus faecium [24]): 8 µM; minimal effective concentration (Enterococcus faecium [25]): 2 µM; minimal effective concentration (Enterococcus faecium [26]): 2 µM; minimal effective concentration (Pseudomonas aeruginosa [27]): 8 µM; minimal effective concentration (Pseudomonas aeruginosa [28]): > 32 µM; minimal effective concentration (Pseudomonas aeruginosa [29]): > 32 µM; minimal effective concentration (Pseudomonas aeruginosa [30]): 8 µM; minimal effective concentration (Escherichia coli [31]): > 32 µM; minimal effective concentration (Escherichia coli [32]): > 32 µM; minimal effective concentration (Escherichia coli [33]): > 32 µM |
| O=C(O)c1cc(-c2ccc(F)cc2F)ccc1O [DIFLUNISAL] | inactive | Non-Toxic | Non-Toxic | Non-Toxic | Non-Toxic | Non-Toxic | Non-Toxic | Non-Toxic | 8 | > 32 | > 32 | > 32 | > 32 | > 32 | > 32 | > 32 | > 32 | > 32 | > 32 | > 32 | minimal effective concentration (Klebsiella pneumoniae [22]): > 32 µM; minimal effective concentration (Klebsiella pneumoniae [23]): > 32 µM; minimal effective concentration (Enterococcus faecium [24]): > 32 µM; minimal effective concentration (Enterococcus faecium [25]): > 32 µM; minimal effective concentration (Enterococcus faecium [26]): > 32 µM; minimal effective concentration (Pseudomonas aeruginosa [27]): > 32 µM; minimal effective concentration (Pseudomonas aeruginosa [28]): > 32 µM; minimal effective concentration (Pseudomonas aeruginosa [29]): > 32 µM; minimal effective concentration (Pseudomonas aeruginosa [30]): > 32 µM; minimal effective concentration (Escherichia coli [31]): > 32 µM; minimal effective concentration (Escherichia coli [32]): > 32 µM; minimal effective concentration (Escherichia coli [33]): > 32 µM |

— ChEMBL document CHEMBL4257522, “Synthesis and preliminary anti-inflammatory and anti-bacterial evaluation of some diflunisal aza-analogs” (Medchemcomm, 2018)
